Data published in ChEMBL document CHEMBL1144093, “Neocrotocembranal from Croton oblongifolius” (1999).
Calls of active or inactive are those of the source. No cut-off for these calls is given here.

What was measured:
P388 = assay: Cytotoxicity against mouse P388 cells by MTT colorimetric method; format: functional
Platelet = assay: Inhibition of thrombin-induced rabbit washed platelets aggregation by turbidimetric method; format: functional, Oryctolagus cuniculus

## C/C1=C\CC/C(C)=C/C=C(/C(C)C)CC/C(C(=O)O)=C/CC1
P388
  Activity: inactive

## C/C1=C\C=C(\C(C)C)CC/C(C=O)=C\CC/C(C)=C/CC1 [NEOCROTOCEMBRANAL]
P388
  Activity: 6.48 µg/mL
Platelet
  Activity: 47.21 µg/mL

## C/C1=C\C=C(\C(C)C)CC/C(C(=O)O)=C\CC/C(C)=C/CC1 [NEOCROTOCEMBRANEIC ACID]
P388
  Activity: 41.47 µg/mL
